Results taken from patent EP4745137A1 (Gluetacs Therapeutics (Shanghai) Co., Ltd., priority 2023, dated 2025).
pIC50: −log10 of the molar value.

How the values were obtained:
[1] = biological target: T1, CK1α (Homo sapiens, UniProt P48729+Q96SW2); experiment: Western-blot assay of substrate protein degradation in hPBMCs, CK1α; type: cell-based; settings: 24 hours of compound treatment, 50 nM and 500 nM tested (concentration behind the class not stated)
T1 construct: endogenous in cells; host or cells: hPBMCs (Milecell Biotechnologies)

[2] = biological target: T2, human Cereblon WT GST-tagged protein (Homo sapiens, UniProt Q96SW2); experiment: CRBN-binding affinity by HTRF (CEREBLON BINDING kit); settings: HTRF inhibitory activity, CEREBLON BINDING kit; read-out: HTRF IC50
T2 construct: purchased CISBIO 64BDCRBNPEH

[3] = biological target: T3, IKZF1 (Homo sapiens, UniProt Q13422+Q96SW2); experiment: Western-blot assay of substrate protein degradation in hPBMCs, IKZF1; type: cell-based; settings: 24 hours of compound treatment, 50 nM and 500 nM tested (concentration behind the class not stated)
T3 construct: endogenous in cells; host or cells: hPBMCs (Milecell Biotechnologies)

[4] = biological target: T4, GSPT1 (Homo sapiens, UniProt P15170+Q96SW2); experiment: Western-blot assay of substrate protein degradation in hPBMCs, GSPT1; type: cell-based; settings: 24 hours of compound treatment, 50 nM and 500 nM tested (concentration behind the class not stated)
T4 construct: endogenous in cells; host or cells: hPBMCs (Milecell Biotechnologies)

[5] = biological target: T5, IKZF2 (Homo sapiens, UniProt Q96SW2+Q9UKS7); experiment: Western-blot assay of substrate protein degradation in hPBMCs, IKZF2; type: cell-based; settings: 24 hours of compound treatment, 50 nM and 500 nM tested (concentration behind the class not stated)
T5 construct: endogenous in cells; host or cells: hPBMCs (Milecell Biotechnologies)

[6] = biological target: T6, WEE1 (Homo sapiens, UniProt P30291+Q96SW2); experiment: Western-blot assay of substrate protein degradation in hPBMCs, WEE1; type: cell-based; settings: 24 hours of compound treatment, 50 nM and 500 nM tested (concentration behind the class not stated)
T6 construct: endogenous in cells; host or cells: hPBMCs (Milecell Biotechnologies)

[7] = biological target: T7, IKZF3 (Homo sapiens, UniProt Q96SW2+Q9UKT9); experiment: Western-blot assay of substrate protein degradation in hPBMCs, IKZF3; type: cell-based; settings: 24 hours of compound treatment, 50 nM and 500 nM tested (concentration behind the class not stated)
T7 construct: endogenous in cells; host or cells: hPBMCs (Milecell Biotechnologies)

[8] = tested on: MV-4-11; experiment: Tumor cell proliferation inhibition (CellTiter-Meiluncell Luminescent Cell Viability Assay), MV-4-11; settings: Homo sapiens, MV4-11, read-out: inhibitory activity (IC50, nM) against tumor cells proliferation, MV-4-11
[9] = tested on: Human acute T lymphocytic leukemia cells (Molt-4); experiment: Tumor cell proliferation inhibition (CellTiter-Meiluncell Luminescent Cell Viability Assay), Molt-4; settings: MOLT-4, read-out: inhibitory activity (IC50, nM) against tumor cells proliferation, Molt-4
[10] = tested on: CCRF-CEM; experiment: Tumor cell proliferation inhibition (CellTiter-Meiluncell Luminescent Cell Viability Assay), CCRF-CEM; settings: Homo sapiens, read-out: inhibitory activity (IC50, nM) against tumor cells proliferation, CCRF-CEM

T6 sequence (P30291 whole entry): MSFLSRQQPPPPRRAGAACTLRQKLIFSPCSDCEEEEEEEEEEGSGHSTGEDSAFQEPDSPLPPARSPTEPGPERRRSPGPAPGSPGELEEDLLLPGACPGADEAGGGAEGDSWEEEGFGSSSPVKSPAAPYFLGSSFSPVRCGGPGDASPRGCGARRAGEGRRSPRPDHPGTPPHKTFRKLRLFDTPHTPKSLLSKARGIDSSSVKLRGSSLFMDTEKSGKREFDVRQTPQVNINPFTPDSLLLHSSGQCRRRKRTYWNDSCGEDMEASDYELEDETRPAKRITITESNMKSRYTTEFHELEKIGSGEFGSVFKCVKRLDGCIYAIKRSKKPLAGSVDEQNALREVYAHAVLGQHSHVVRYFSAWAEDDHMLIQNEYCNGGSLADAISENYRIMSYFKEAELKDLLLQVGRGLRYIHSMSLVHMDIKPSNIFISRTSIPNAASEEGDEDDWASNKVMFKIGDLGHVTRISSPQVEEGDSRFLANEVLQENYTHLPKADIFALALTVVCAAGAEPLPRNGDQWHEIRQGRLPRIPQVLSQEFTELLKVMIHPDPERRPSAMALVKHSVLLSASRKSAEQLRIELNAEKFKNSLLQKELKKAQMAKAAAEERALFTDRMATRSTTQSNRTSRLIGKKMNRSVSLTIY
T6 sequence (Q96SW2 whole entry): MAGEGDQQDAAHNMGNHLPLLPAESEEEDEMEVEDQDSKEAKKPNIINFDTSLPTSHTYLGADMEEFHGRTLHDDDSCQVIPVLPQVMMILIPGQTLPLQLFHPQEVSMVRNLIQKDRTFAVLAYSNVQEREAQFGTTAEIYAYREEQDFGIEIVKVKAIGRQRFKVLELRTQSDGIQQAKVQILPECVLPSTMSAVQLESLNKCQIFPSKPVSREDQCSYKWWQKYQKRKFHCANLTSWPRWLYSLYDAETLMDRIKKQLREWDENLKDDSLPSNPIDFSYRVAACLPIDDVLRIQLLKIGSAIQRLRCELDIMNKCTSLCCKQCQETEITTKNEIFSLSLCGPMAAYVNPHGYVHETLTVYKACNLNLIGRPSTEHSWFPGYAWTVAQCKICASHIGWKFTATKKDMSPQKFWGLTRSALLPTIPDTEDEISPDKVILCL
T6 sequence (Q16531 whole entry partner): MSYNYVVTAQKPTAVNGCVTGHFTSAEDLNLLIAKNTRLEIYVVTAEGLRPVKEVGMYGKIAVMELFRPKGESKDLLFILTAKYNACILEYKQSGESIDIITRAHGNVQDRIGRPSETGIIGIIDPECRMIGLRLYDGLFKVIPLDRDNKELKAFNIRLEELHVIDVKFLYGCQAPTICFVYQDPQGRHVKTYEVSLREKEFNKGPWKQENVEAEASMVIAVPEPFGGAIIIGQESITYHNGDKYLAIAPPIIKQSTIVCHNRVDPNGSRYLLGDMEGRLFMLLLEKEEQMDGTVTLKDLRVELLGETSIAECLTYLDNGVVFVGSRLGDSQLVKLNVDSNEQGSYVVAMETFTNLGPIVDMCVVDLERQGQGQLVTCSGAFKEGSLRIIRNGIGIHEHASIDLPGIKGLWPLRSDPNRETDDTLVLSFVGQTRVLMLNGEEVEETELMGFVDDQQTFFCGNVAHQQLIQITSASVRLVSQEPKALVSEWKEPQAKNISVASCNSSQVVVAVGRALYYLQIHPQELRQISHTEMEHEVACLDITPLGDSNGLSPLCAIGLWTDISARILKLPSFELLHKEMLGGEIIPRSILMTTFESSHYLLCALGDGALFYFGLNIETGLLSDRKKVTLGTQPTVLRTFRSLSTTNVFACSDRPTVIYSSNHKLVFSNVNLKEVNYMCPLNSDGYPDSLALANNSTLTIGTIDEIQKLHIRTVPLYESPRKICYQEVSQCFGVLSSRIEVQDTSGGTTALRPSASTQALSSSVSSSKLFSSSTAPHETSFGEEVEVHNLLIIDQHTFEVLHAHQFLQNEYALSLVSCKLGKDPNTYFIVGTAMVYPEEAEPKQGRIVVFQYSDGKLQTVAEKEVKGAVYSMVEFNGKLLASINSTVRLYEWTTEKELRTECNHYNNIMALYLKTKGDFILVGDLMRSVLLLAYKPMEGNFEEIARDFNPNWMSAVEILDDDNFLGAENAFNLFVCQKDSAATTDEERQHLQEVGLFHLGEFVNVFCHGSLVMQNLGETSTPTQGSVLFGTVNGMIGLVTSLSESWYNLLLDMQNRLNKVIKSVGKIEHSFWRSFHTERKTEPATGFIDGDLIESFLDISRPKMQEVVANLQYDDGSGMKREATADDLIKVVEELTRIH
T4 sequence (P15170 whole entry): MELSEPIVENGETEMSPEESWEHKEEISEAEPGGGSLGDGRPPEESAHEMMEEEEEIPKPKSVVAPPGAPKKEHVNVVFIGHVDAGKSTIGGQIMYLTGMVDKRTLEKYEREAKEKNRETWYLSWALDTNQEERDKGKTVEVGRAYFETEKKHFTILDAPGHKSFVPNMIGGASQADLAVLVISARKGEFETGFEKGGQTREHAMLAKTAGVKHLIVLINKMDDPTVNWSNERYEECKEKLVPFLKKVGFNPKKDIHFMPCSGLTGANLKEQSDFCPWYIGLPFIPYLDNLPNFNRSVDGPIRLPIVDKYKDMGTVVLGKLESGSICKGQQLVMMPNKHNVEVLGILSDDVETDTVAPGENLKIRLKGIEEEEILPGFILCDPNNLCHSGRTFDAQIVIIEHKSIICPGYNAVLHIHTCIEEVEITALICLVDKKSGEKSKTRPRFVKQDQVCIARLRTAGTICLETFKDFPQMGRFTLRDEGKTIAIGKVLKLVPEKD
T4 sequence (Q96SW2 whole entry): as the sequence (Q96SW2 whole entry) above
T4 sequence (Q16531 whole entry partner): as the sequence (Q16531 whole entry partner) above
T7 sequence (Q9UKT9 whole entry): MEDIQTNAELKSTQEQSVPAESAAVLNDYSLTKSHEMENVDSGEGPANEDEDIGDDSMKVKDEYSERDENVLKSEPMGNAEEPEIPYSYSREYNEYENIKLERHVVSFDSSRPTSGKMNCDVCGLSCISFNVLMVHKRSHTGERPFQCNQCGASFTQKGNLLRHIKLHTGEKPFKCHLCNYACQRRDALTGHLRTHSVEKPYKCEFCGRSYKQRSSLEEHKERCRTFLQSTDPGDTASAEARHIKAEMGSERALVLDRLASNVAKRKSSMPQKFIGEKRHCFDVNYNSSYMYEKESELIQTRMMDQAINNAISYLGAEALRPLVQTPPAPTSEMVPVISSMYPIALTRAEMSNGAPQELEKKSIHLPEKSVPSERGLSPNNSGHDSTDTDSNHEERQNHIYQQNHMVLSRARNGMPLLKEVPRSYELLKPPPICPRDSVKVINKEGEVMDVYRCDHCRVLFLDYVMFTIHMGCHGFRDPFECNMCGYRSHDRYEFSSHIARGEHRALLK
T7 sequence (Q96SW2 whole entry): as the sequence (Q96SW2 whole entry) above
T7 sequence (Q16531 whole entry partner): as the sequence (Q16531 whole entry partner) above
T3 sequence (Q13422 whole entry): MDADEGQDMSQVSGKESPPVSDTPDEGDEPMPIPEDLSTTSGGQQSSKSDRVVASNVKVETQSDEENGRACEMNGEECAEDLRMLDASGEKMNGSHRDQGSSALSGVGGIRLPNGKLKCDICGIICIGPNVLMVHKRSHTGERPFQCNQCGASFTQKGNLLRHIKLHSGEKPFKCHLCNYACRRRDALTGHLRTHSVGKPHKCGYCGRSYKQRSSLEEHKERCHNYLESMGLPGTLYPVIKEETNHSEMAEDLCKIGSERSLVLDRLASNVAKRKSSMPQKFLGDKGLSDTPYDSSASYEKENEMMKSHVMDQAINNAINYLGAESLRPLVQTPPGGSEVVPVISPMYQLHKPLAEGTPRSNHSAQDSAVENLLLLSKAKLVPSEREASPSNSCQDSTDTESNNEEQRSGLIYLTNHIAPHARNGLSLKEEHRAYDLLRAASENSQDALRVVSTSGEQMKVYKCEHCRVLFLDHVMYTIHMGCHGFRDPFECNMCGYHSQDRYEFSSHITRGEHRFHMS
T3 sequence (Q96SW2 whole entry): as the sequence (Q96SW2 whole entry) above
T3 sequence (Q16531 whole entry partner): as the sequence (Q16531 whole entry partner) above
T2 sequence (Q96SW2 whole entry): as the sequence (Q96SW2 whole entry) above
T1 sequence (P48729 whole entry): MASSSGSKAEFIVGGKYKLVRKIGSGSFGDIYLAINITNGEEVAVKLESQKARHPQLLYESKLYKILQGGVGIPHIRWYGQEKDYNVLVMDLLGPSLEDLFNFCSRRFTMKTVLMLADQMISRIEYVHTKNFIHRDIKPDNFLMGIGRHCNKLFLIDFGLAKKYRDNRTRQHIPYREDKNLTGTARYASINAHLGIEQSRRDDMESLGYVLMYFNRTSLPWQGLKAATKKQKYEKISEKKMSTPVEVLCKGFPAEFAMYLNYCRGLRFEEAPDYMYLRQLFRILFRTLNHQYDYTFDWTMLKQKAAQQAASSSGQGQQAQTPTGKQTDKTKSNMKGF
T1 sequence (Q96SW2 whole entry): as the sequence (Q96SW2 whole entry) above
T1 sequence (Q16531 whole entry partner): as the sequence (Q16531 whole entry partner) above

| pIC50 [2] | IC50 [8] [nM] | SMILES | CK1a substrate protein remaining % [1] | IKZF 1 substrate protein remaining % [3] | GSPT1 substrate protein remaining % [4] | IKZF2 substrate protein remaining % [5] | Weel substrate protein remaining % [6] | IKZF3 substrate protein remaining % [7] | IC50 [9] [nM] | IC50 [10] [nM] |
| --- | --- | --- | --- | --- | --- | --- | --- | --- | --- | --- |
| 5.72 to 5.82 | 100 to 500 | Cc1nc(C2=CCN(Cc3ccc4c(c3)C(=O)N(C3CCC(=O)NC3=O)C4=O)CC2)c2c3c(sc2n1)CCCC3 (stereo not shown) [GT-06679, 2-(2,6-dioxopiperidin-3-yl)-5-((4-(2-methyl-5,6,7,8-tetrahydrobenzo[4,5]thieno[2,3-d]pyrimidin-4-yl)-3,6-dihydropyridin-1(2H)-yl)methyl)isoindoline-1,3-dione] | B (80%< substrate protein remaining %≤ 100%) | B (80%< substrate protein remaining %≤ 100%) | B (80%< substrate protein remaining %≤ 100%) | B (80%< substrate protein remaining %≤ 100%) | A (0% ≤ substrate protein remaining % ≤ 80%) | A (0% ≤ substrate protein remaining % ≤ 80%) | – | – |
| – | 100 to 500 | O=C1CCC(N2C(=O)c3ccc(CN4CC=C(c5ncc6ccsc6n5)CC4)cc3C2=O)C(=O)N1 (stereo not shown) [GT-06683, 2-(2,6-dioxopiperidin-3-yl)-5-((4-(thieno[2,3-d]pyrimidin-2-yl)-3,6-dihydropyridin-1(2H)-yl)methyl)isoindoline-1,3-dione] | B (80%< substrate protein remaining %≤ 100%) | A (0% ≤ substrate protein remaining % ≤ 80%) | A (0% ≤ substrate protein remaining % ≤ 80%) | A (0% ≤ substrate protein remaining % ≤ 80%) | A (0% ≤ substrate protein remaining % ≤ 80%) | A (0% ≤ substrate protein remaining % ≤ 80%) | 500 to 1000 | 500 to 1000 |
| 5.82 to 6.00 | 100 to 500 | O=C1CCC(N2C(=O)c3ccc(CN4CCN(c5nc(N6CCOCC6)c6sccc6n5)CC4)cc3C2=O)C(=O)N1 (stereo not shown) [GT-06718, 2-(2,6-dioxopiperidin-3-yl)-5-((4-(4-morpholinothieno[3,2-d]pyrimidin-2-yl)piperazin-1-yl)methyl)isoindoline-1,3-dione] | B (80%< substrate protein remaining %≤ 100%) | B (80%< substrate protein remaining %≤ 100%) | A (0% ≤ substrate protein remaining % ≤ 80%) | B (80%< substrate protein remaining %≤ 100%) | B (80%< substrate protein remaining %≤ 100%) | B (80%< substrate protein remaining %≤ 100%) | – | – |
| 5.72 to 5.82 | 500 to 1000 | O=C1CCC(N2C(=O)c3ccc(CN4CC=C(c5ncnc6sc7c(c56)CCC7)CC4)cc3C2=O)C(=O)N1 (stereo not shown) [GT-06681, 5-((4-(6,7-dihydro-5H-cyclopenta[4,5]thieno[2,3-d]pyrimidin-4-yl)-3,6-dihydropyridin-1(2H)-yl)methyl)-2-(2,6-dioxopiperidin-3-yl)isoindoline-1,3-dione] | B (80%< substrate protein remaining %≤ 100%) | A (0% ≤ substrate protein remaining % ≤ 80%) | A (0% ≤ substrate protein remaining % ≤ 80%) | A (0% ≤ substrate protein remaining % ≤ 80%) | A (0% ≤ substrate protein remaining % ≤ 80%) | A (0% ≤ substrate protein remaining % ≤ 80%) | – | – |
| – | 100 to 500 | O=C1CCC(N2C(=O)c3ccc(CN4CC=C(c5c[nH]c6ncccc56)CC4)cc3C2=O)C(=O)N1 (stereo not shown) [GT-06706, 5-((4-(1H-pyrrolo[2,3-b]pyridin-3-yl)-3,6-dihydropyridin-1(2H)-yl)methyl)-2-(2,6-dioxopiperidin-3-yl)isoindoline-1,3-dione] | A (0% ≤ substrate protein remaining % ≤ 80%) | A (0% ≤ substrate protein remaining % ≤ 80%) | A (0% ≤ substrate protein remaining % ≤ 80%) | A (0% ≤ substrate protein remaining % ≤ 80%) | A (0% ≤ substrate protein remaining % ≤ 80%) | A (0% ≤ substrate protein remaining % ≤ 80%) | 500 to 1000 | 500 to 1000 |
| – | 100 to 500 | Cc1nc(C2=CCN(Cc3ccc4c(c3)C(=O)N(C3CCC(=O)NC3=O)C4=O)CC2)c2ccsc2n1 (stereo not shown) [GT-06678, 2-(2,6-dioxopiperidin-3-yl)-5-((4-(2-methylthieno[2,3-d]pyrimidin-4-yl)-3,6-dihydropyridin-1(2H)-yl)methyl)isoindoline-1,3-dione] | A (0% ≤ substrate protein remaining % ≤ 80%) | A (0% ≤ substrate protein remaining % ≤ 80%) | A (0% ≤ substrate protein remaining % ≤ 80%) | B (80%< substrate protein remaining %≤ 100%) | A (0% ≤ substrate protein remaining % ≤ 80%) | A (0% ≤ substrate protein remaining % ≤ 80%) | 100 to 500 | 100 to 500 |

| SMILES | pIC50 [2] | IC50 [8] [nM] | CK1a substrate protein remaining % [1] | IKZF 1 substrate protein remaining % [3] | GSPT1 substrate protein remaining % [4] | IKZF2 substrate protein remaining % [5] | Weel substrate protein remaining % [6] | IKZF3 substrate protein remaining % [7] | IC50 [9] [nM] | IC50 [10] [nM] |
| --- | --- | --- | --- | --- | --- | --- | --- | --- | --- | --- |
| O=C1CCC(N2C(=O)c3ccc(CN4C5CCC4CN(c4cccc(Cl)c4Cl)C5)cc3C2=O)C(=O)N1 (stereo not shown) [GT-06694, 5-((3-(2,3-dichlorophenyl)-3,8-diazabicyclo[3.2.1]octan-8-yl)methyl)-2-(2,6-dioxopiperidin-3-yl)isoindoline-1,3-dione] | – | 100 to 500 | B (80%< substrate protein remaining %≤ 100%) | B (80%< substrate protein remaining %≤ 100%) | A (0% ≤ substrate protein remaining % ≤ 80%) | A (0% ≤ substrate protein remaining % ≤ 80%) | A (0% ≤ substrate protein remaining % ≤ 80%) | B (80%< substrate protein remaining %≤ 100%) | 500 to 1000 | 500 to 1000 |
| O=C1CCC(N2C(=O)c3ccc(CN4CC=C(c5cncc(Cl)c5)CC4)cc3C2=O)C(=O)N1 (stereo not shown) [GT-06611, 5-((5-chloro-3',6'-dihydro-[3,4'-bipyridin]-1'(2'H)-yl)methyl)-2-(2,6-dioxopiperidin-3-yl)isoindoline-1,3-dione] | – | 100 to 500 | A (0% ≤ substrate protein remaining % ≤ 80%) | A (0% ≤ substrate protein remaining % ≤ 80%) | A (0% ≤ substrate protein remaining % ≤ 80%) | A (0% ≤ substrate protein remaining % ≤ 80%) | A (0% ≤ substrate protein remaining % ≤ 80%) | A (0% ≤ substrate protein remaining % ≤ 80%) | 500 to 1000 | 100 to 500 |
| O=C1CCC(N2C(=O)c3ccc(CN4CC=C(c5ncccc5F)CC4)cc3C2=O)C(=O)N1 (stereo not shown) [GT-06612, 2-(2,6-dioxopiperidin-3-yl)-5-((3-fluoro-3',6'-dihydro-[2,4'-bipyridin]-1'(2'H)-yl)methyl)isoindoline-1,3-dione] | – | 500 to 1000 | A (0% ≤ substrate protein remaining % ≤ 80%) | A (0% ≤ substrate protein remaining % ≤ 80%) | A (0% ≤ substrate protein remaining % ≤ 80%) | A (0% ≤ substrate protein remaining % ≤ 80%) | A (0% ≤ substrate protein remaining % ≤ 80%) | A (0% ≤ substrate protein remaining % ≤ 80%) | 500 to 1000 | 500 to 1000 |
| O=C1CCC(N2C(=O)c3ccc(CN4CC=C(c5ccnc(Cl)c5Cl)CC4)cc3C2=O)C(=O)N1 (stereo not shown) [GT-06616, 5-((2',3'-dichloro-3,6-dihydro-[4,4'-bipyridin]-1(2H)-yl)methyl)-2-(2,6-dioxopiperidin-3-yl)isoindoline-1,3-dione] | 5.72 to 5.82 | 100 to 500 | A (0% ≤ substrate protein remaining % ≤ 80%) | A (0% ≤ substrate protein remaining % ≤ 80%) | A (0% ≤ substrate protein remaining % ≤ 80%) | B (80%< substrate protein remaining %≤ 100%) | A (0% ≤ substrate protein remaining % ≤ 80%) | A (0% ≤ substrate protein remaining % ≤ 80%) | 500 to 1000 | 500 to 1000 |
